Experiments:
[1] = tested on: non-constipated IBS subjects; settings: cited from earlier work
methane = settings: retrospective study; cited from earlier work
breath methane = assay: Fasting breath sample for methane after therapy in the same trial; assay type: in vivo, human
Procedure: (§1) Following completion of therapy, subjects were asked to continue with the weekly symptom questionnaires for an additional 4 weeks. During the final week of follow up, subjects were asked to repeat the 7-day stool diary followed by the final weekly questionnaire. Finally, subjects were asked to repeat a single fasting breath sample to examine for the presence of methane.
Subjects were asked to fast for 12 hours prior to a breath sample being obtained. Breath samples were collected via a Quintron dual bag collecting system (Quintron Instrument Company, Milwaukee, Wis.). The sampled gas was analyzed using a BreathTracker SC (Quintron Instrument Company, Milwaukee, Wis.). Output was reported as methane in parts per million (ppm) after correction for alveolar sample quality using breath CO2 concentration.
The primary outcome measure of this study was constipation severity as assessed on a VAS score from the first week following completion of the treatment phase. Secondary outcome measures included the severity of constipation, abdominal pain, urgency, bloating and straining over the entire study period. In addition, the eradication of methane was evaluated as a determinant of improvement at 4 weeks post therapy.

[2] = in vivo
Procedure: All subjects with a diagnosis of C-IBS presented for a fasting breath test after a 12 hour fast. Only subjects with methane level of >3 ppm on a single breath sample were enrolled. Subjects then completed a baseline study questionnaire and a baseline audiogram. […] Subjects were then asked to complete a daily stool diary for two weeks with weekly questionnaires for overall symptom severity. Subjects were eligible for randomization only if they were confirmed to have <3 CSBMs per week during stool diary.
The randomization scheme was set in blocks of 4 and each site received batches of drug in multiples of 4 to balance each study site into blocks. The allocation was concealed. The randomization was done by the drug company with a tracking list provided to the study site pharmacy in a concealed envelope. The pharmacy, investigators and patients were blinded. During the 14 days of treatment, subjects completed weekly symptom questionnaires (2 questionnaires over 2 weeks).
Baseline qualitative data and side effect rates were compared by Fisher's Exact Test. Quantitative baseline data was normal so were compared by t-Test. Data were expressed as mean±SD. The primary endpoint was also normally distributed and compared by t-test.

[3] = tested on: non-selected population of IBS; settings: cited from earlier work
[4] = tested on: C-IBS subjects with methane; assay: Randomized double-blind trial in methane-positive C-IBS subjects: weekly symptom severity questionnaires (VAS 0-100); assay type: in vivo, human
Procedure: Consecutive C-IBS subjects (18-65 yrs of age) (Rome III criteria) were recruited after applying exclusion criteria. All subjects presented for a lactulose breath test after a 12 hour fast. Only subjects with methane level >3 ppm on at least 1 breath sample were enrolled. Subjects then completed a stool diary, questionnaire (100 point VAS scale for bloating, abdominal pain, constipation, diarrhea and straining) and 2 week run in phase. […] Questionnaires were repeated weekly during treatment and for 4 weeks following completion of treatment. On the last week of follow up, the stool diary was repeated.
Consecutive patients (18-65 yrs of age) who fulfilled the Rome II criteria for C-IBS^2 were recruited. Patients were included if they reported <3 complete and spontaneous bowel movements (CSBMs) per week and had breath methane >3 ppm. […] Subjects were also excluded if they had taken an antibiotic or probiotic in the previous 30 days or were currently taking narcotics, proton pump inhibitors, tricyclic antidepressants, or medications known to alter intestinal motility. All subjects provided informed written consent and the study was approved by the institutional review board of all three study sites. Subjects who completed the study received a stipend. The study was registered with clinicaltrials.gov (NCT00945334).
The allocation was concealed. […] The pharmacy, investigators and patients were blinded.
as §1
The baseline study questionnaire included subject demographics as well as symptom severity information. Follow-up questionnaires included a repeat evaluation of symptom severity. The following were assessed: abdominal pain, constipation, bloating, urgency, incomplete evacuation, straining and diarrhea. Severity was rated using a visual analog scale (VAS) from 0-100 mm (with 0=no symptom and 100=severe symptoms).
The primary outcome measure of this study was constipation severity as assessed on a VAS score from the first week following completion of the treatment phase. […] In addition, the eradication of methane was evaluated as a determinant of improvement at 4 weeks post therapy.
Data were expressed as mean±SD.
To examine the effect of each group over the duration of the study, a mixed longitudinal model was used. […] The models were analyzed with a single covariate (baseline diarrhea, constipation, abdominal pain, or bloating severity score). […]

[5] = by week 2 of treatment, 100 point VAS, mean±SD

Row | Compound | duration of benefits following cessation of therapy ([1]; after 14 days of rifaximin therapy, global symptom rating, bloating, stool consistency, abdominal pain) [months] | efficacy versus placebo in the treatment of IBS ([1]; multiple published randomized trials) | benefit of single antibiotic (methane) | reduction in methane from baseline (median drop) (breath methane; fasting breath sample, final visit vs baseline) [ppm] | subjects with methane levels ≦3 ppm following treatment (breath methane; final visit, of 15 subjects (rifaximin plus neomycin), out of 16 subjects (neomycin)) [subjects] | Side effect: Abdominal pain [2] | Side effect: Bloating and distension [2] | Side effect: Constipation [2] | Side effect: Diarrhea [2] | Side effect: Nausea [2] | Side effect: Urgency [2] | improvement of IBS compared to placebo [3] | rate of normalizing the breath test [3] | bloating severity (VAS) [4, 5] | constipation VAS score [4, 5] | difference in constipation severity between subjects with and without methane ≦3 ppm ([4]; final visit) | VAS score for constipation (primary endpoint) ([4]; one week after completion of 14 days of therapy, ITT, mean±SD)
1 | CO[C@H]1/C=C/O[C@@]2(C)Oc3c(C)c(O)c4c(O)c(c5c(nc6cc(C)ccn65)c4c3C2=O)NC(=O)/C(C)=C\C=C\[C@H](C)[C@H](O)[C@@H](C)[C@@H](O)[C@@H](C)[C@H](OC(C)=O)[C@@H]1C [Rifaximin, rifaximin] | 3 | superiority over placebo | did not have a substantial benefit |  |  |  |  |  |  |  |  |  |  |  |  |  | 
2 | neomycin |  |  | did not have a substantial benefit | 7.5 | 11 | 6 (38) n(%) | 9 (56) n(%) | 2 (13) n(%) | 2 (13) n(%) | 10 (63) n(%) | 2 (13) n(%) | successful in improving IBS | poor rate | 65.1±25.9 | 57.9±25.0 | no significant difference | 61.2±24.1

Source: patent publication US20160158262A1, “METHODS OF TREATING IRRITABLE BOWEL SYNDROME” (CEDARS-SINAI MEDICAL CENTER, priority 2013, published 2016)
